Measured values: patent US5574031A, “Piperazine carboxamides” (priority 1992, dated 1996)
pKi: −log10 of the molar value. Structures can show the parent of a compound that is named as a salt.

Key:
D2 -receptors = target: T1, D2 -receptors (Rattus norvegicus, UniProt P61169); test: Affinity to D2-receptors (3H-spiroperidol binding); conditions: 3H-spiroperidol as ligand
T1 construct: from tissue
Method: Test 2 Affinity to D2 -receptors.
The binding assay is carried out essentially as described by Leysen et al. (Mol. Pharmacol. 21,301-14, 1982) using ^3 H-spiroperidol as ligand.

5-HT2 receptors = target: T2, 5-HT2 receptors (Rattus norvegicus, UniProt P14842); test: Affinity to 5-HT2 receptors (3H-ketanserin binding); conditions: 3H-ketanserin as ligand
T2 construct: from tissue
T2 sequence (P14842 whole entry): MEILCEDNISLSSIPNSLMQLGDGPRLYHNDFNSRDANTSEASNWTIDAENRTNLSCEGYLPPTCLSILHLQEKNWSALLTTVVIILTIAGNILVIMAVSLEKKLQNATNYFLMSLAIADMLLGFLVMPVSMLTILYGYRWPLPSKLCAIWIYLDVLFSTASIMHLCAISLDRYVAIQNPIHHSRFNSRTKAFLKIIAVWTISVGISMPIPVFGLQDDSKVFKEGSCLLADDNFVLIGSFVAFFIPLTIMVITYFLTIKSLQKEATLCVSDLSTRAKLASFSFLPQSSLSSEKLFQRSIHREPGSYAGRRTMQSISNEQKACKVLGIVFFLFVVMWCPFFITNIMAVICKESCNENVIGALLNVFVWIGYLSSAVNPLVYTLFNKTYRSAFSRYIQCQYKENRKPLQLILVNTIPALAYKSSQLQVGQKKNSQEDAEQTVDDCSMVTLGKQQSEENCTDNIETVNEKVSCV
Method: Test 1. Affinity to 5-HT2 receptors
The binding assay is carried out essentially as described by Leysen et al. (Mol. Pharmacol. 21,301-14, 1982) using ^3 H-ketanserin as ligand.

T1 sequence (P61169 whole entry): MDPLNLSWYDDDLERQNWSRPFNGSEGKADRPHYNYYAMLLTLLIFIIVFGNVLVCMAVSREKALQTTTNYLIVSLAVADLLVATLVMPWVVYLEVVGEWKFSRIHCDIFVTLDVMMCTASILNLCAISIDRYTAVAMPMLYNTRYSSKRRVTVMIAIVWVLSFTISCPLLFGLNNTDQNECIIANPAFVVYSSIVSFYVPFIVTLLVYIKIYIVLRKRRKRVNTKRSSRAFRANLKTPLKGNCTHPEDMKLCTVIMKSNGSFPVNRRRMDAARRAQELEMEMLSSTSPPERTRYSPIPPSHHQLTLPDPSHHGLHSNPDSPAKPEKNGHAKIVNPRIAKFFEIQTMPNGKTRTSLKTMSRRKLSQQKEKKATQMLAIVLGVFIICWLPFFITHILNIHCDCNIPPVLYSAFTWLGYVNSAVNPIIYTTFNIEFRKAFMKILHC

| SMILES | pKi (D2 -receptors) | pKi (5-HT2 receptors) |
| --- | --- | --- |
| CCNC(=O)N1CCN(CCOC(c2ccc(F)cc2)c2ccc(F)cc2)CC1 [3:1, 4-[2-[(4,4'Difluorobenzhydryl)oxy]-ethyl]-N-ethyl-1-piperazinecarboxamide hydrochloride] | < 5.00 | 7.22 |
| CNC(=S)N1CCN(CCOC(c2ccc(F)cc2)c2ccc(F)cc2)CC1 [3:4, 4-[2-[(4,4'Difluorobenzhydryl)oxy]-ethyl]-N-methyl-1-piperazinethiocarboxamide hydrochloride] | 5.80 | 7.70 |
| O=C(N1CCCC1)N1CCN(CCOC(c2ccc(F)cc2)c2ccc(F)cc2)CC1 [6:2, 1-[2-[(4,4'-Difluorobenzhydryl)oxy]ethyl]-4-(pyrrolidino-carbonyl)piperazine hydrochloride] | 5.75 | 7.82 |
| CCNC(=O)N1CCN(CCCC(c2ccc(F)cc2)c2ccc(F)cc2)CC1 [Amperozide, reference compound] | 6.27 | 7.77 |
